In patent publication US10894807B2 (Siemens Medical Solutions USA, Inc., priority 2011, dated 2021):
Like-named read-outs stand apart in the source and are kept apart here.

Target: human PSMA (Homo sapiens (Human), UniProt Q04609)
Experiment: Enzymatic assay for in vitro evaluation of PSMA inhibitors (fluorescent assay of PSMA activity, NAAG substrate, OPA detection of glutamate)
Format: biochemical

Chain of human PSMA (Q04609 whole entry): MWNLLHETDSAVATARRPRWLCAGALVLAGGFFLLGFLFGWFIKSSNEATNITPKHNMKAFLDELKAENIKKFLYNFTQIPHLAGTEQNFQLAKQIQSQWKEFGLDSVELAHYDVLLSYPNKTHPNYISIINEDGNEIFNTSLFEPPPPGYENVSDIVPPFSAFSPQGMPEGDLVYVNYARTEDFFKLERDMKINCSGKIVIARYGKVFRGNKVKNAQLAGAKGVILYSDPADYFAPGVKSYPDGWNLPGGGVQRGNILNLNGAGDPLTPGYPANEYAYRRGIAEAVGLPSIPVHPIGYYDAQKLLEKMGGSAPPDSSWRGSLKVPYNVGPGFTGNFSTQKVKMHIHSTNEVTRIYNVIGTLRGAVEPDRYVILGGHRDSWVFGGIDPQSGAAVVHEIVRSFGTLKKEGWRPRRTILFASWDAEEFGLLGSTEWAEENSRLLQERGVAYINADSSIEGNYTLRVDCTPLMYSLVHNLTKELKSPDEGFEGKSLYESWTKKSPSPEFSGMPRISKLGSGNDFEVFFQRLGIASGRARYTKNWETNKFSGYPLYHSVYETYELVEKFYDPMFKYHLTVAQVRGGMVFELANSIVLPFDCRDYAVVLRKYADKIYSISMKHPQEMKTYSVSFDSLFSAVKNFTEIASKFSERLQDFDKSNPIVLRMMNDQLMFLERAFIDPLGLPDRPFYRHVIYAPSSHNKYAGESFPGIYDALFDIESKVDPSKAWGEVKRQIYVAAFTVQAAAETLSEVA

SMILES	Ki	PSMA Blkg % (10 μM) (compound at 10 μM)	PSMA Blkg % (10 μM)	further results
CN(C(=O)N[C@@H](CCC(=O)O)C(=O)O)[C@@H](CCCCn1cc(COCCOCCNc2ccc([N+](=O)[O-])cc2[N+](=O)[O-])nn1)C(=O)O [P172, (S)-2-(3-((S)-1-Carboxy-5-(4-((2-(2-(2,4-dinitrophenylamino)ethoxy)ethoxy)methyl)-1H-1,2,3-triazol-1-yl)pentyl)-3-methylureido)pentanedioic Acid]	313 nM			
CN(C(=O)N[C@@H](CCC(=O)O)C(=O)O)[C@@H](CCCCn1cc(CCCF)nn1)C(=O)O [P173, (S)-2-(3-((S)-1-Carboxy-5-(4-(3-fluoropropyl)-1H-1,2,3-triazol-1-yl)pentyl)-3-methylureido)pentanedioic Acid]		31%		
CN(C(=O)[C@H](CC(=O)O)NC(=O)COCCNC(=O)c1ccc(F)cc1)[C@@H](CCC(=O)O)C(=O)O [P174, (S)-2-((S)-3-Carboxy-2-(2-(2-(4-fluorobenzamido)ethoxy)acetamido)-N-methylpropanamido)pentanedioic Acid]		1%		
CN(C(=O)N[C@@H](CCC(=O)O)C(=O)O)[C@@H](CCCCNC(=O)NCc1ccccc1)C(=O)O [P175, (9S,13S)-10-Methyl-3,11-dioxo-1-phenyl-2,4,10,12-tetraazapentadecane-9,13,15-tricarboxylic Acid]		18%		
CN(C(=O)N[C@@H](CCC(=O)O)C(=O)O)[C@@H](CCCCNC(=O)OCc1ccc([N+](=O)[O-])cc1)C(=O)O [P176, (9S,13S)-10-Methyl-1-(4-nitrophenyl)-3,11-dioxo-2-oxa-4,10,12-triazapentadecane-9,13,15-tricarboxylic Acid]		77%		
Cc1ccc(S(=O)(=O)NCCCC[C@@H](C(=O)O)N(C)C(=O)N[C@@H](CCC(=O)O)C(=O)O)cc1 [P177, (S)-2-(3-((S)-1-Carboxy-5-(4-methylphenylsulfonamido)pentyl)-3-methylureido)pentanedioic Acid]		38%		
O=C(O)CC[C@H](NS(=O)(=O)NC(=O)OCc1ccccc1)C(=O)O [P178, (S)-2-((N-((Benzyloxy)carbonyl)sulfamoyl)amino)pentanedioic Acid]		1%		
O=C(O)CC[C@@H](C(=O)O)N(O)S(=O)(=O)NC(=O)OCc1ccccc1 [P179, (S)-2-((N-((Benzyloxy)carbonyl)sulfamoyl)(hydroxy)amino)pentanedioic Acid]		4%		
NS(=O)(=O)N(OC(=O)OCc1ccccc1)[C@@H](CCC(=O)O)C(=O)O [P180]		5%		
[N-]=[N+]=Nc1ccc(CCCC(=O)NS(=O)(=O)N[C@@H](CCC(=O)O)C(=O)O)cc1 [P181, (S)-2-((N-(4-(4-Azidophenyl)butanoyl)sulfamoyl)amino)pentanedioic Acid]		39%		
O=C(O)CC[C@H](NC(=O)N(O)[C@@H](CCCCNC(=O)c1ccc(F)nc1)C(=O)O)C(=O)O [P182, (S)-2-(3-((S)-1-Carboxy-5-(6-fluoronicotinamido)pentyl)-3-hydroxyureido)pentanedioic Acid]		92%		
[N-]=[N+]=NCCCCC(=O)NS(=O)(=O)N[C@@H](CCC(=O)O)C(=O)O [P183, (S)-2-((N-(5-Azidopentanoyl)sulfamoyl)amino)pentanedioic Acid]		36%		
CN(C(=O)N[C@@H](CCC(=O)O)C(=O)O)[C@@H](CCCCNCc1ccc(F)cc1)C(=O)O [P184, (S)-2-(3-((S)-1-Carboxy-5-(4-fluorobenzylamino)pentyl)-3-methylureido)pentanedioic Acid]		10%		
CC(=O)Oc1ccc2c(c1)Oc1cc(OC(C)=O)ccc1C21OC(=O)c2ccc(C(=O)NCCCC[C@H](NC(=O)N[C@@H](CCC(=O)O)C(=O)O)C(=O)O)cc21 [P185, (S)-2-(3-((S)-1-Carboxy-5-(3′,6′-diacetoxy-3-oxo-3H-spiro[isobenzofuran-1,9′-xanthen]-6-ylcarboxamido)pentyl)ureido)pentanedioic Acid]				PSMA Blkg % (10 μM): 99%
CC(F)C(=O)Nc1ccc(C(=O)NCCCC[C@H](NC(=O)N(O)[C@@H](CCC(=O)O)C(=O)O)C(=O)O)cc1 (stereo partly drawn) [P186, (S)-2-(3-((S)-1-Carboxy-5-(4-(2-fluoropropanamido)benzamido)pentyl)-1-hydroxyureido)pentanedioic Acid]		85%		
O=C(O)CC[C@H](NC(=O)N[C@@H](CCCCn1cc(CCCF)nn1)C(=O)O)C(=O)O [P188, (S)-2-(3-((S)-1-Carboxy-5-(4-(3-fluoropropyl)-1H-1,2,3-triazol-1-yl)pentyl)ureido)-pentanedioic Acid]	6.6 nM	99%		

SMILES	Ki	PSMA Blkg % (10 μM) (compound at 10 μM)	PSMA Blkg % (10 μM)	further results
O=C(O)C(Cn1cc(CCCF)nn1)CP(=O)(O)O (stereo not drawn) [P189, 3-(4-(3-Fluoropropyl)-1H-1,2,3-triazol-1-yl)-2-(phosphonomethyl)propanoic Acid]	> 688 nM			
O=C(O)C(Cn1ccnn1)CP(=O)(O)O (stereo not drawn) [P190, 2-((1H-1,2,3-Triazol-1-yl)methyl)-3-phosphonopropanoic Acid]	188 nM			
CN(C(=O)N[C@@H](CCC(=O)O)C(=O)O)[C@@H](Cc1ccc(NC(=O)CCCn2cc(CCCF)nn2)cc1)C(=O)O [P191, (S)-2-(3-((S)-1-Carboxy-2-(4-(4-(4-(3-fluoropropyl)-1H-1,2,3-triazol-1-yl)-butanamido)phenyl)-ethyl)-3-methylureido)pentanedioic Acid]			78%	
O=C(O)Cn1cc(C[C@H](NC(=O)N[C@@H](CCCCNC(=O)OCc2ccccc2)C(=O)O)C(=O)O)nn1 [P192, (9S,13S)-9-Carboxy-13-((1-(carboxymethyl)-1H-1,2,3-triazol-4-yl)methyl)-3,11-dioxo-1-phenyl-2-oxa-4,10,12-triazatetradecan-14-oic Acid]			29%	
O=C(O)CCC(CP(=O)(O)OCCOCCOCCOCCn1cc(CCCF)nn1)C(=O)O (stereo not drawn) [P193, 2-(((2-(2-(2-(2-(4-(3-Fluoropropyl)-1H-1,2,3-triazol-1-yl)ethoxy)ethoxy)ethoxy)ethoxy)(hydroxy)phosphoryl)methyl)pentanedioic Acid]			0%	
O=C(O)CC[C@H](NC(=O)N[C@@H](CCCCNC(=O)[C@H]1O[C@@H](CNC(=O)CCc2ccc(-n3cc(CCCF)nn3)cc2)[C@H](O)[C@@H](O)[C@H]1O)C(=O)O)C(=O)O [P194, (S)-2-(3-((S)-1-Carboxy-5-((2S,3R,4R,5R,6S)-6-((3-(4-(4-(3-fluoropropyl)-1H-1,2,3-triazol-1-yl)phenyl)propanamido)methyl)-3,4,5-trihydroxytetrahydro-2H-pyran-2-carboxamido)pentyl)ureido)pentanedioic Acid]	69 nM		96%	
O=C(O)CC[C@H](NC(=O)N[C@@H](Cc1ccc(OCCn2cc(CCCF)nn2)cc1)C(=O)O)C(=O)O [P195, (S)-2-(3-((S)-1-Carboxy-2-(4-(2-(4-(3-fluoropropyl)-1H-1,2,3-triazol-1-yl)ethoxy)phenyl)ethyl)ureido)pentanedioic Acid]	66 nM		96%	
CC(=O)N(CCF)CC(CP(=O)(O)O)C(=O)O.O=C(O)C(F)(F)F (stereo not drawn) [P196, 3-(N-(2-Fluoroethyl)acetamido)-2-(phosphonomethyl)propanoic Acid]			27%	
O=C(O)CCC(CP(=O)(O)NCCc1ccccc1)C(=O)O (stereo not drawn) [P197, 2-((Hydroxy(phenethylamino)phosphoryl)methyl)pentanedioic Acid]	> 3000 nM		22%	
O=C(O)CCC(Nc1c(NC(CCC(=O)O)C(=O)O)c(=O)c1=O)C(=O)O (stereo not drawn) [P198, 2,2′-[(3,4-Dioxocyclobut-1-ene-1,2-diyl)bis(azanediyl)]dipentanedioic Acid]			14%	
O=C(O)CC[C@H](NC(=O)C[C@@H](NC(=O)OCC1c2ccccc2-c2ccccc21)C(=O)O)C(=O)O [P199, (S)-2-[(R)-((((9H-Fluoren-9-yl)methoxy)carbonyl)amino)-3-carboxypropanamido]pentanedioic Acid]	> 188 nM		82%	
O=C(O)CC[C@H](NC(=O)N[C@@H](CCCCNC(=S)Nc1ccc(-n2cc(CCCF)nn2)cc1)C(=O)O)C(=O)O [P200, (S)-2-(3-((S)-1-Carboxy-5-(3-(4-(4-(3-fluoropropyl)-1H-1,2,3-triazol-1-yl)phenyl)thioureido)pentyl)-ureido)pentanedioic Acid]	< 0.3 nM		95%	
CC(C)(C)OC(=O)N1CCC[C@H]1COP(=O)(O)CC(CCC(=O)O)C(=O)O (stereo partly drawn) [P201, 2-(((((S)-1-(tert-butoxycarbonyl)pyrrolidin-2-yl)methoxy)(hydroxy)phosphoryl)methyl)-pentanedioic Acid]	> 300 nM		83%	
O=C(O)CC[C@H](NC(=O)NC(Cc1ccc(OCCn2cc(CCCF)nn2)cc1)C(=O)O)C(=O)O (stereo partly drawn) [P202, (2S)-2-(3-(1-Carboxy-2-(4-(2-(4-(3-fluoropropyl)-1H-1,2,3-triazol-1-yl)ethoxy)phenyl)ethyl)ureido)pentanedioic Acid]	94 nM		97%	
O=C(O)CC[C@H](NC(=O)N[C@@H](Cc1ccc(OCCOCCOCCn2cc(CCCF)nn2)cc1)C(=O)O)C(=O)O [P203, (S)-2-(3-((S)-1-Carboxy-2-(4-(2-(2-(2-(4-(3-fluoropropyl)-1H-1,2,3-triazol-1-yl)ethoxy)ethoxy)ethoxy)phenyl)ethyl)ureido)pentanedioic Acid]	41 nM		97%	
O=C(O)CC[C@H](NC(=O)N[C@@H](COCc1ccccc1)C(=O)O)C(=O)O [P204, (S)-2-(3-((S)-2-(Benzyloxy)-1-carboxyethyl)ureido)pentanedioic Acid]	6.9 nM		98%	
